Where two headings read alike, the source gives them in different places.
Assays:
active and passive EAE = assay: rat EAE animal model of multiple sclerosis; assay type: in vivo
Experimental: Using the rat EAE animal model of multiple sclerosis, a series of prophetic studies are performed wherein aminopterin is given to animals using both active and passive protocols for inducing EAE (Burton, Agents and Actions (1989) 27 (3/4): 351-355). In the active protocol, animals are intradermally injected with myelin basic protein (MBP), Freund's adjuvant and mycobacteria, whereas in the passive protocol separate donor rats are immunized actively and then 10-12 days after active immunization, donor splenocytes are collected and stimulated […] with MBP for 3 days, then 1−2×10^8 leukocytes injected iv into each irradiated (600 rads) recipient rat. Aminopterin at doses of 0.0005, 0.001, 0.002, 0.005, 0.008, 0.010, 0.050, 0.1 and 0.5 mg/kg are administered ip on the day after active or passive sensitization.

[1] = tested on: neutrophils that accumulated in the carrageenan-treated air pouches
Experimental: J. Clin. Invest., 1993. 92(6):2675-82].
A separate group of 5 animals was given vehicle by ip injection on the same days (0.9% saline, control, n=5). On day 16, air pouches were induced on the animals by injecting 3 ml of air subcutaneously on the back. On day 22 (i.e. one day after the last dose of drug or vehicle), inflammation was induced by injection of 1 ml of a suspension of carrageenan (2% weight/volume in calcium- and magnesium-free PBS). The mice were put back in their cages and allowed to run free for 4 hours. […] After 4 hours, the animals were sacrificed, the pouches flushed with 2 ml of PBS and the exudates harvested. Aliquots were diluted 1:1 with methylene blue (0.01% w/v in PBS), and the cells were counted.

[2] = tested on: influx of neutrophils (PMNs) in hyperoxia; assay: rat oxygen-toxicity model of bronchopulmonary dysplasia; assay type: in vivo, rats; conditions: single 0.2 mg/kg ip injection day 2 after birth, 95% oxygen, sacrifice day 8
Text: Mason, S, N.; Richard L. Auten, J. Lung inflammation in hyperoxia can be prevented by antichemokine treatment in newborn rats. American Journal of Respiratory Critical Care Medicine 2000, 162, 2316-2323]. […] Litter sizes were the same. […] Dams were rotated daily between air and oxygen cages to avoid maternal oxygen toxicity. On day 8, the pups were weighed and then euthanized, tracheas are cannulated and the pulmonary artery is perfused with saline. Bronchoalveolar lavage fluid (BALF) was then obtained for cell count and chemokine analysis (FIG. 3). The lungs were removed and snap frozen for myeloperoxidase activity assay (neutrophil accumulation within lung parenchyma) and 8-isoprostane, a marker of lipid oxidation. The pulmonary artery was perfused and the lungs were inflation-fixed with buffered formalin at 25 cm H2O.

[3] = tested on: antigen-induced arthritis; conditions: cumulative weekly doses of >1.5 mg/kg; cited from earlier work
psoriasis = conditions: cited from earlier work
[4] = biological target: T1, dihydrofolate reductase (DHFR) in the liver (Mus musculus, UniProt P00375); assay: free DHFR in liver by 3H-MTX binding after weekly dosing; assay type: in vivo, mice
T1 construct: from tissue; host or cells: liver (homogenate supernatant) of dosed mice
T1 sequence (P00375 1-187): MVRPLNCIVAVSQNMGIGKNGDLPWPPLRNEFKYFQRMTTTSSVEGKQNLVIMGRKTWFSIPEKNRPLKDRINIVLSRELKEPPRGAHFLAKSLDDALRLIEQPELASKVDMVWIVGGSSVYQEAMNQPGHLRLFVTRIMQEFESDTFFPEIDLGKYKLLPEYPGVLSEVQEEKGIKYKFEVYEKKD
Experimental: The animals that were treated in Example 1 were further analyzed with respect to the free dihydrofolate reductase (DHFR) available in their livers (i.e., amount of DHFR unbound, or not inhibited by either AMT or MTX) (FIG. 6). The following procedure was used. Portions of frozen liver were weighed and homogenized in three volumes of assay buffer (10 mM KPO4, 150 mM KCl, 1 mg/ml charcoal-treated BSA, 0.1 mg/ml NADPH, pH 7.5) on ice. After centrifugation for 30 min at 16000×G at 4° C., tissue extract was assayed for free DHFR by binding of 3H-MTX. Three serial 1:2 dilutions were made in assay buffer (total 100 μl/tube), starting with 10 μl extract for control samples (+190 μl buffer) or 100 μl for antifolate-treated samples. Approximately 2 pmoles of 3H-MTX (˜100,000 dpms) in 100 μl buffer was added to each tube and mixed by addition of another 100 μl buffer and agitation. After 30 mins on ice, unbound 3H-MTX was removed by addition of 200 μl dextran-coated activated charcoal (2.5% activated charcoal and 0.5% dextran MW 10,000) and centrifugation. Radioactivity in the supernatant (=bound 3H-MTX) was counted after careful removal from the charcoal pellet and addition of Ultima Gold scintillation fluid. A charcoal “blank” consisting of buffer, 3H-MTX and charcoal was subtracted from each value. Results were calculated by averaging the dpms bound/100 μl of the three dilutions, converting to picomoles MTX (specific activity 49,000 dpms/picomole, determined by competitive radioligand assay), and multiplying by 30 to give picomoles/gm tissue.

formaldehyde arthritis = conditions: cumulative weekly doses of 0.3 mg/kg; cited from earlier work
[5] = tested on: carrageenan-induced inflammation in air pouches; assay: duration of efficacy in the murine air-pouch model after cessation of 4 weeks of dosing; assay type: in vivo, mice; conditions: aminopterin 0.05 mg/kg, methotrexate 1.0 mg/kg
Experimental: We therefore examined the rate at which anti-inflammatory activity was lost in the air-pouch model after the cessation of 4 weeks of dosing at the maximally efficacious dose (FIG. 2).
On day 25 the air pouches were re-inflated with 1.5 ml of air. Pouches were re-inflated as needed to maintain them.

canine atopic dermatitis = tested on: canine atopic dermatitis
Experimental: […] Subjects were assessed at baseline and at weeks 2 and 4 of the trial, and every other week of the 1-year extension phase.
Subjects were assessed at baseline and at weeks 2 and 4.

[6] = tested on: rheumatoid arthritis, psoriatic arthritis, uncomplicated psoriasis, and atopic dermatitis; conditions: 0.75-2 mg/day for approximately 1 week and greater; cited from earlier work

With `Nc1nc(N)c2nc(CNc3ccc(C(=O)N[C@@H](CCC(=O)O)C(=O)O)cc3)cnc2n1` [aminopterin, 4-amino-pteroyl-L-glutamic acid] the “persistence of inhibition after the single dose” value (active and passive EAE; active or passive EAE) was “up to 14 days”, the “dose-response over the range of doses” value (active and passive EAE; sensitized actively or passively) was “clear dose-response” and the “inhibition of the onset of active EAE” value (active and passive EAE; single ip dose (0.0005-0.5 mg/kg) day after active sensitization, one or more of the doses) was “greater than 80%”. For the same molecule, the “inhibition of the onset of passive EAE” value (active and passive EAE; single ip dose (0.0005-0.5 mg/kg) day after passive sensitization, one or more of the doses) was “greater than 80%”, the “potency relative to methotrexate” value ([1]; ratio of EC50s, P<0.001) was 43 fold and the “signs of toxicity at the end of the dosing period” value ([1]; weekly ip doses, aminopterin 0.0005-0.050 mg/kg, methotrexate 0.01-1.00 mg/kg) was “no signs of toxicity”. The “EC50 for diminishing the number of neutrophils accumulated in carrageenan-treated air pouches” value ([1]; weekly ip injection days 1, 7, 14, 21, carrageenan day 22, exudate after 4 hours) was 0.0009 mg/kg/wk, the “number of neutrophils in bronchoalveolar lavage fluid” value [2] was “statistically significant reduction” and the efficacy [3] was “demonstrated the efficacy”. The toxicity [3] was “severe toxicity”, the “frequency of toxic reactions” value (psoriasis; schedule (i): 1 tablet (0.5 mg) daily for six days) was 0% and the “frequency of toxic reactions” value (psoriasis; schedule (ii): 1 tablet daily six days, one week rest, 1 tablet daily six days) was 2.5%. For the same molecule, the “frequency of toxic reactions” value (psoriasis; schedule (iii): 1 tablet daily for 12 days) was 13%, the “frequency of toxic reactions” value (psoriasis; schedule (iv): 2 tablets daily for six days) was 30% and the “available DHFR in the liver bound (inhibited)” value ([4]; 1 day after the last of 4 sequential weekly doses) was “about 95%”. The “available DHFR in the liver bound (inhibited)” value ([4]; 8 d after the last of 4 weekly doses) was “about 83%”, the “available DHFR in the liver bound (inhibited)” value ([4]; 22 d after the last of 4 weekly doses) was “about 70%” and the efficacy (formaldehyde arthritis) was “demonstrated the efficacy”. For the same molecule, the “difference between aminopterin and methotrexate in rate of recovery of inflammation” value ([5]; 8, 12 or 22 days after last of 4 weekly ip doses) was “no statistically significant difference”, the duration of action ([5]; after last of 4 weekly ip doses) was “quite long” and the “median improvement from baseline in PVAS score” value (canine atopic dermatitis; 5 dogs, oral 0.01 mg/kg/week, 4 weeks, range −4 to +2) was −4. For the same molecule, the “median improvement from baseline in CADESI score” value (canine atopic dermatitis; 5 dogs, oral 0.01 mg/kg/week, 4 weeks, range −11 to −91%) was −59%, the “median improvement from baseline in composite CADESI×pruritis score” value (canine atopic dermatitis; 5 dogs, oral 0.01 mg/kg/week, 4 weeks, range −97 to +24%) was −60% and the “clinical evidence of hematologic (CBC) or liver toxicity (LFTs)” value (canine atopic dermatitis; dogs treated up to 20 weeks at 0.01 mg/kg/week) was “no clinical evidence of hematologic (CBC) or liver toxicity (LFTs)”. The “overall evaluation of efficacy by owners” value (canine atopic dermatitis; median score 2, range 1 to 4, oral 0.01 mg/kg/week, 4 weeks) was “fair (fair (25-50%))”, the “overall evaluation of efficacy by clinicians” value (canine atopic dermatitis; median score 2, range 1 to 5, oral 0.01 mg/kg/week, 4 weeks) was “fair (fair (25-50%))” and the toxic reactions [6] was “the majority of patients developed toxic reactions”.

Source: patent US8129383B2, “Aminopterin dosage forms and methods for inflammatory disorders” (Aminopterin LLC, priority 2005, dated 2012)
